Measurements as given in US10081632B2, “Substituted tetrahydropyrido[3′,2′:4,5]pyrrolo[1,2-α]pyrazine-2-carboxamides as RSK inhibitors” (Phoenix Molecular Designs, priority 2016, dated 2018).
Marks after values point to notes of the source that are not given here.

How the values were obtained:
RSK2 = RSK2 (Homo sapiens (Human), UniProt P51812); test: Radioisotope kinase assay (SignalChem), RSK2; type: biochemical; conditions: 33P-ATP, 30° C., 15 minutes
Experimental: The assay conditions for the RSK2 kinase target were optimized to yield acceptable enzymatic activity. In addition, the assays were optimized to give high signal-to-noise ratio.
Radioisotope assays (SignalChem) were performed for the evaluation of the kinase target profiling and all assays were performed in a designated radioactive working area. The kinase targets were RSK1, RSK2, RSK3, RSK4 and MK2.
The assay was initiated by the addition of ^33P-ATP and the reaction mixture incubated at 30° C. for 15 minutes. After the incubation period, the assay was terminated by spotting 10 μL of the reaction mixture onto Multiscreen phosphocellulose P81 plate. The Multiscreen phosphocellulose P81 plate was washed 3 times for approximately 15 minutes each in a 1% phosphoric acid solution. The radioactivity on the P81 plate was counted in the presence of scintillation fluid in a Trilux scintillation counter.
Blank controls were set up for each target kinase which included all the assay components except the addition of the appropriate substrate (which was replaced with equal volume of assay dilution buffer). The corrected activity for each target kinase was determined by removing the blank control value.

4T1 cells [1] = test: Monolayer growth inhibition, Alamar blue assay; type: cell-based; conditions: Mus musculus, 4T1, 4T1 (TNBC), 5 days, single dose on day 1
Excerpt: (§1) In all instances a single dose was given on day 1 of the experiment.

HCC1937 cells [2] = test: Monolayer growth inhibition, Alamar blue assay; type: cell-based; conditions: Homo sapiens, HCC1937, HCC1937 (TNBC, BRCA Mutant), 5 days, single dose on day 1
Excerpt: as §1

JIMT-1 cells [3] = test: Monolayer growth inhibition, Alamar blue assay; type: cell-based; conditions: Homo sapiens, JIMT-1, JIMT-1 (HER2), 5 days, single dose on day 1
Excerpt: as §1

PC3 cells = test: Monolayer growth inhibition, Alamar blue assay; type: cell-based; conditions: Homo sapiens, PC-3; PC3 (Prostate), 5 days, single dose on day 1
Excerpt: as §1

SUM149-PTXR cells = test: Monolayer growth inhibition, Alamar blue assay; type: cell-based, Human; conditions: SUM149-PTXR (TNBC, BRCA Mutant), 5 days, single dose on day 1
Excerpt: as §1

T47D cells [4] = test: Monolayer growth inhibition, Alamar blue assay; type: cell-based, Human; conditions: T47D (ER/PR), 5 days, single dose on day 1
Excerpt: as §1

HCC1937 cells [5] = test: Monolayer growth inhibition, crystal violet assay; type: cell-based; conditions: Homo sapiens, HCC1937, HCC1937 (TNBC, BRCA Mutant), 5 days, single dose on day 1
Excerpt: (§2) In all instances a single dose was given on day 1 of the experiment. […] Complete (100%) growth suppression was achievable with several of the compounds in multiple different cell lines.

JIMT-1 cells [6] = test: Monolayer growth inhibition, crystal violet assay; type: cell-based; conditions: Homo sapiens, JIMT-1, JIMT-1 (HER2), 5 days, single dose on day 1
Excerpt: as §2

MDA-MB-468 cells [7] = test: Monolayer growth inhibition, crystal violet assay; type: cell-based; conditions: Homo sapiens, MDA-MB-468, MDA-MB-468 (TNBC), 5 days, single dose on day 1
Excerpt: as §2

T47D cells [8] = test: Monolayer growth inhibition, crystal violet assay; type: cell-based; conditions: Homo sapiens, T47D, T47D (ER/PR), 5 days, single dose on day 1
Excerpt: as §2

4T1 cells [9] = test: Monolayer growth inhibition, crystal violet assay; type: cell-based; conditions: Mus musculus, 4T1, 4T1 (TNBC), 5 days, single dose on day 1
Excerpt: as §1

HCC1143 cells = test: Monolayer growth inhibition, crystal violet assay; type: cell-based; conditions: Homo sapiens, HCC1143, HCC1143 (TNBC), 5 days, single dose on day 1
Excerpt: as §1

SUM149 cells = test: Monolayer growth inhibition, crystal violet assay; type: cell-based; conditions: Homo sapiens, SUM149, SUM149 (TNBC, BRCA Mutant), 5 days, single dose on day 1
Excerpt: as §1

MDA-MB-468 cells [10] = test: Soft agar growth inhibition assay; type: cell-based, Human; conditions: MDA-MB-468 (TNBC), 14-22 days
JIMT-1 cells [11] = test: Immuno-oncology gene expression (HLA-DRA, CIITA, CD274 mRNA); type: cell-based, Human
Excerpt: (§3) A key feature of cancer is low immunogenicity. This can occur by several mechanisms that allow the cells to escape immune recognition. […] HLA-DRA is a member of MHC-II genes and CIITA is the master regulator of MHC II transcription. Thus it was surprising that CIITA, which would be expected to regulate MHC II gene expression, was not altered by RSK inhibition. […] HLA-DRA is important for immune recognition while PD-L1 is involved in immune checkpoints.

MDA-MB-231 cells [12] = test: as above; type: cell-based, Human; conditions: Compound 16 2 or 4 uM, Compound 18 1, 2, or 4 uM
Excerpt: as §3

MDA-MB-231 cells [13] = test: Combination with paclitaxel, monolayer growth (crystal violet); conditions: MDA-MB-231, 5 days
Experimental: 1×10^3 cells per well were seeded for a final volume of 200 μl per well and plates were incubated for 5 days at 37° C. in a humidified incubator with 5% CO2. Following the incubation period, cell survival was quantified by Alamar blue assay (Life Technologies). Briefly, media from each well was replaced with 100 μl of phosphate buffer saline (PBS, Life Technologies) and cells were incubated with 5% Alamar blue, which incorporates a propriety redox indicator that changes colour in response to metabolic activity, for up to 2 hours. During this period of incubation, the absorbance at 570 nm and 600 nm was measured at various time points, depending on the cell line or sample. Percent survival was calculated by comparing the absorbance ratio of the test well to the control well multiplied by 100%, as indicated in the following formula:
Following, plates were prepared for crystal violet staining. To begin, 100 μl of an 8% formaldehyde (Alfa Aesar) solution diluted in PBS was added to each well and plates were stored at 4° C. overnight. Next, the formaldehyde solution was discarded and the wells were washed with 200 μl ultrapure water per well three times. Following, 50 μl of a 0.5% crystal violet solution (0.5% w/v crystal violet (Alfa Aesar), 25% methanol (VWR)) was added to each well and incubated at room temperature for 20 minutes. The crystal violet solution was discarded and wells were washed with 200 μl ultrapure water per well three times. Next, 50 μl of a 5% sodium dodecyl sulphate (SDS) (Alfa Aesar) was added to each well and the absorbance at 590 nm was measured.

[14] = test system: phosphorylated Y-box binding protein-1 (YB-1) at serine 102 (P-YB-1S102); test: Immunoblotting of cell signalling, loss of P-YB-1 in MDA-MB-231 cells

Chain of RSK2 (P51812 whole entry): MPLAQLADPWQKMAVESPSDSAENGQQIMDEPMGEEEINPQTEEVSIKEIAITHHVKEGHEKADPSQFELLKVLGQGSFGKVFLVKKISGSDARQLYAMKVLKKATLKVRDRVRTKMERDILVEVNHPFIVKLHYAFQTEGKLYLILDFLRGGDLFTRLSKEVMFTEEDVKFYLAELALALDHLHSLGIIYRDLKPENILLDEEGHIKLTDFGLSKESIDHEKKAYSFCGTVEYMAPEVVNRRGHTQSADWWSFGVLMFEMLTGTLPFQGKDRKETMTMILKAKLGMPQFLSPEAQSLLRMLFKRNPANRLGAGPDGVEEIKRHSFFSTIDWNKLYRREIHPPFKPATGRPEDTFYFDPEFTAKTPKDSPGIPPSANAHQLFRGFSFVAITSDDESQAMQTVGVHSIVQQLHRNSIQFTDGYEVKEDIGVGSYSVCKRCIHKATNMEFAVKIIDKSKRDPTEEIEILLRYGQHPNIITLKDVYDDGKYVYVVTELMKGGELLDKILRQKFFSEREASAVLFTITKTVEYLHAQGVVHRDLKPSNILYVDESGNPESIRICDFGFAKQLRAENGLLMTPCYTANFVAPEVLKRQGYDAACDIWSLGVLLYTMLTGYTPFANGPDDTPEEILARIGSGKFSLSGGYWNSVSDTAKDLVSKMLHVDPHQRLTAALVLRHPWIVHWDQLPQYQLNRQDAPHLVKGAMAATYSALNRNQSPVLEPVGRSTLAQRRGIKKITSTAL

C[C@@H]1CNC(=O)c2cc3ccc(C(=O)Nc4cnn(Cc5ccc(N)cc5)c4)nc3n21 [Compound 18, (R)—N-(1-(4-aminobenzyl)-1H-pyrazol-4-yl)-9-methyl-6-oxo-6,7,8,9-tetrahydropyrido[3′,2′:4,5]pyrrolo[1,2-a]pyrazine-2-carboxamide]
IC50 (RSK2): 20 nM
IC50 (4T1 cells [1]): 5.3 ± 2.5 µM
IC50 (HCC1937 cells [2]): 9.2 ± 1.1 µM
IC50 (JIMT-1 cells [3]): 13.1 ± 6.4 µM
IC50 (PC3 cells): 5.5 ± 0.5 µM
IC50 (SUM149-PTXR cells): 2100 ± 300 nM
IC50 (T47D cells [4]): 3.6 ± 1.7 µM
IC50 (HCC1937 cells [5]): 7.7 ± 3.5 µM
IC50 (JIMT-1 cells [6]): 11.1 ± 0.5 µM
IC50 (MDA-MB-468 cells [7]): 2300 ± 900 nM
IC50 (T47D cells [8]): 2200 ± 800 nM
IC50 (4T1 cells [9]): 5.3 ± 1.1 µM
IC50 (HCC1143 cells): 2400 ± 800 nM
IC50 (SUM149 cells): 2400 ± 700 nM
IC50 (MDA-MB-468 cells [10]): 300 ± 100 nM
HLA-DRA mRNA (JIMT-1 cells [11]): elevated levels of HLA-DRA mRNA
mRNA expression of CIITA (JIMT-1 cells [11]): little effect
CD274 (gene encoding PD-L1) levels (JIMT-1 cells [11]; 1-20 uM): inhibited CD274
CD274 (gene encoding PD-L1) levels (MDA-MB-231 cells [12]): reduced levels of CD274
HLA-DRA mRNA (MDA-MB-231 cells [12]): elevated levels of HLA-DRA mRNA
mRNA expression of CIITA (MDA-MB-231 cells [12]): little effect
Coefficient of Drug Interaction (CDI) (MDA-MB-231 cells [13]; Compound 18 0.2 μM with paclitaxel (0.3 nM)): 1.6
Coefficient of Drug Interaction (CDI) (MDA-MB-231 cells [13]; Compound 18 0.4 μM with paclitaxel (0.3 nM)): 1.2
Coefficient of Drug Interaction (CDI) (MDA-MB-231 cells [13]; Compound 18 0.8 μM with paclitaxel (0.3 nM), considered synergistic): 0.8*
Coefficient of Drug Interaction (CDI) (MDA-MB-231 cells [13]; Compound 18 1.6 μM with paclitaxel (0.3 nM), considered synergistic): 0.4*
Coefficient of Drug Interaction (CDI) (MDA-MB-231 cells [13]; Compound 18 3.1 μM with paclitaxel (0.3 nM), considered synergistic): 0.2*
Coefficient of Drug Interaction (CDI) (MDA-MB-231 cells [13]; Compound 18 […] with paclitaxel (0.3 nM), considered synergistic): 0.4*
Loss of P-YB-1 ([14]; MDA-MB-231 cells, 0.01, 0.1, 1, or 10 uM, 24 hrs): dose dependent loss of P-YB-1
Loss of P-YB-1 ([14]; MDA-MB-231 cells, 0.01-1 uM, 96 hrs): dose dependent loss of P-YB-1
